Legend:
[1] = biological target: T1, Melanin-concentrating hormone receptor 1 (Homo sapiens, UniProt Q99705); test: Displacement of [3H]SNAP from human MCH1 receptor expressed in HEK cells; assay type: cell-based, HEK293
[2] = biological target: T1, Melanin-concentrating hormone receptor 1; conditions: HEK293
Description: Antagonist activity at human MCH1 receptor expressed in HEK cells after 45 mins by [35S]GTP-gamma-S binding assay
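For pKb in this document: antagonism measured by [35S]GTPγS binding in HEK cells carrying human MCH1 receptor, 45 min incubation.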

T1 sequence (Q99705 whole entry): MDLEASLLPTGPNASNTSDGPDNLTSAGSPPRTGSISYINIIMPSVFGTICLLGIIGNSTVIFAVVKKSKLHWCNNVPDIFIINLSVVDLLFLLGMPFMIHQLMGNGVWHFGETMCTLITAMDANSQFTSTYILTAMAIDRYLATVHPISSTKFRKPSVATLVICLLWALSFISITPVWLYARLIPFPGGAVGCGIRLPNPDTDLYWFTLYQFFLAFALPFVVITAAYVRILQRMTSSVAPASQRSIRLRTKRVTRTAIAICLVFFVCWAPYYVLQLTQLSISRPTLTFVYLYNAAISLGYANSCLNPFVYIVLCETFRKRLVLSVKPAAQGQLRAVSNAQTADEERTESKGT

Ki ([1]; read-out: Ki) [nM]	pKb [2]	Ki ([1]; read-out: Log Ki (converted)) [nM]	Compound
425	6.19		COc1ccccc1-c1ccc(CNC(=O)NC2CCN(Cc3ccc(C)cc3)CC2)cc1
6050	5.43		COc1ccccc1-c1ccc(CN(CC(=O)C(C)(C)O)C(=O)NC2CCN(Cc3ccc(C)cc3)CC2)cc1
215	6.14		COc1ccccc1-c1ccc(CN(CCC2CCN(Cc3ccc(C)cc3)CC2)C(=O)NC(C)(C)COC(C)=O)cc1
143	6.93		CCC(CO)(CO)NC(=O)N(CCC1CCN(Cc2ccc(C)cc2)CC1)Cc1ccc(-c2ccc(OC)cc2)cc1
214	6.71		CCC(COC(C)=O)(COC(C)=O)NC(=O)N(CCC1CCN(Cc2ccc(C)cc2)CC1)Cc1ccc(-c2ccc(F)cc2)cc1
595	6.19		COc1ccc(-c2ccc(CN(CCC3CCN(Cc4ccc(C)cc4)CC3)C(=O)NC(C)(C)COC(C)=O)cc2)cc1
947	6.43		CC(=O)OCC(C)(C)NC(=O)N(CCC1CCN(Cc2ccc(C)cc2)CC1)Cc1ccc(-c2ccccc2)cc1
	< 5		COc1ccccc1-c1ccc(CN(CCC2CCN(Cc3ccc(C)cc3)CC2)C(=O)NC(C)C)cc1
186	6.38		Cc1ccc(CN2CCC(NC(=O)NCc3ccc(-c4cccc(C#N)c4)cc3)CC2)cc1
509	6		Cc1ccc(CN2CCC(CCN(Cc3ccc(-c4cccc(C#N)c4)cc3)C(=O)NC(C)C)CC2)cc1
5860	5.34		Cc1ccc(CN2CCC(NC(=O)N(CC(=O)C(C)(C)O)Cc3ccc(-c4ccc(F)cc4)cc3)CC2)cc1
258			Cc1ccc(CN2CCC(CCN(Cc3ccc(-c4ccccc4)cc3)C(=O)NC(C)C)CC2)cc1
144	6.2		Cc1ccc(CN2CCC(CCN(Cc3ccc(-c4ccccc4)cc3)C(=O)NC(C)(C)CO)CC2)cc1
388	6.58		CCC(COC(C)=O)(COC(C)=O)NC(=O)N(CCC1CCN(Cc2ccc(C)cc2)CC1)Cc1ccc(-c2ccccc2)cc1
273	6.33		COc1ccc(-c2ccc(CN(CCC3CCN(Cc4ccc(C)cc4)CC3)C(=O)NC(C)C)cc2)cc1
2640	5.97	2660	Cc1ccc(CN2CCC(NC(=O)NCc3ccc(-c4ccccc4)cc3)CC2)cc1
1460	6.36		COc1ccc(-c2ccc(CNC(=O)NC3CCN(Cc4ccc(C)cc4)CC3)cc2)cc1

Ki ([1]; read-out: Ki) [nM]	pKb [2]	Ki ([1]; read-out: Log Ki (converted)) [nM]	Compound
254	6.63		CC(=O)OCC(C)(C)NC(=O)N(CCC1CCN(Cc2ccc(C)cc2)CC1)Cc1ccc(-c2cccc(C#N)c2)cc1
43	7.08		Cc1ccc(CN2CCC(CCN(Cc3ccc(-c4cccc(C#N)c4)cc3)C(=O)NC(C)(C)CO)CC2)cc1
314	6.42	313	Cc1ccc(CN2CCC(CCN(Cc3ccc(-c4ccc(F)cc4)cc3)C(=O)NC(C)C)CC2)cc1
545	6.71	543	Cc1ccc(CN2CCC(NC(=O)NCc3ccc(-c4ccc(F)cc4)cc3)CC2)cc1
421	6.39		CC(=O)OCC(C)(C)NC(=O)N(CCC1CCN(Cc2ccc(C)cc2)CC1)Cc1ccc(-c2ccc(F)cc2)cc1
1200			CCC(COC(C)=O)(COC(C)=O)NC(=O)N(CCC1CCN(Cc2ccc(C)cc2)CC1)Cc1ccc(-c2ccccc2OC)cc1
	< 5		COc1ccc(-c2ccc(CN(CC(=O)C(C)(C)O)C(=O)NC3CCN(Cc4ccc(C)cc4)CC3)cc2)cc1
167	6.65		CCC(CO)(CO)NC(=O)N(CCC1CCN(Cc2ccc(C)cc2)CC1)Cc1ccc(-c2ccccc2OC)cc1
6380	5.3		Cc1ccc(CN2CCC(NC(=O)N(CC(=O)C(C)(C)O)Cc3ccc(-c4cccc(C#N)c4)cc3)CC2)cc1
96.6	7.38		Cc1ccc(CN2CCC(CCN(Cc3ccc(-c4ccc(F)cc4)cc3)C(=O)NC(C)(C)CO)CC2)cc1
170	6.86		CCC(COC(C)=O)(COC(C)=O)NC(=O)N(CCC1CCN(Cc2ccc(C)cc2)CC1)Cc1ccc(-c2ccc(OC)cc2)cc1
1080			CCC(COC(C)=O)(COC(C)=O)NC(=O)N(CCC1CCN(Cc2ccc(C)cc2)CC1)Cc1ccc(-c2cccc(C#N)c2)cc1
204	7.06		COc1ccc(-c2ccc(CN(CCC3CCN(Cc4ccc(C)cc4)CC3)C(=O)NC(C)(C)CO)cc2)cc1
173	6.83		CCC(CO)(CO)NC(=O)N(CCC1CCN(Cc2ccc(C)cc2)CC1)Cc1ccc(-c2ccccc2)cc1
769	5.41		CCC(CO)(CO)NC(=O)N(CCC1CCN(Cc2ccc(C)cc2)CC1)Cc1ccc(-c2cccc(C#N)c2)cc1
149	6.54		CCC(CO)(CO)NC(=O)N(CCC1CCN(Cc2ccc(C)cc2)CC1)Cc1ccc(-c2ccc(F)cc2)cc1
251	6.88		COc1ccccc1-c1ccc(CN(CCC2CCN(Cc3ccc(C)cc3)CC2)C(=O)NC(C)(C)CO)cc1
